{
  "source": "patent EP4790048A1",
  "about": "“S1PR4 REGULATOR COMPOUND FOR AUTOIMMUNE DISEASE TREATMENT AND APPLICATION THEREOF” (Shengyuan Zetong (Shanghai) Pharmaceutical Co., Ltd, priority 2023, dated 2025)",
  "key": {"[1]": {"system": "BALB/c mice", "assay": "DSS-induced chronic ulcerative colitis in mice (Example 6)", "format": "in vivo", "description": "BALB/c mice were acclimatized for 7 days before the experiment. From Day 7 to Day 50 of the experiment, the mice were weighed daily and their blood and stool conditions were observed, scored and recorded according to the following table (Table 1). After random grouping, all groups except the Control group were given free access to 2-3% DSS solution for modeling from Day 7 to Day 14, while the Control group received normal drinking water during the same period. One cycle lasted 14 days and was repeated 3 times. Re-grouping was performed at the start of the final cycle to initiate drug administration. The Control group and Model group received no drug but the same solvent. The other groups were intragastrically administered 1 mg/kg, 3 mg/kg, 9 mg/kg, and SASP 500 mg/kg respectively. On Day 45, blood and colon samples were collected, colon length was measured, and a 1-2 cm colon segment was fixed with formaldehyde.\n(§1) • BALB/c mice, male, 20-22 g • Dextran sulfate sodium MW: 36,000-50,000 (DSS) • 30 1 mg/kg, 3 mg/kg, 9 mg/kg, SASP (500 mg/kg) indicators were observed.\n(§2) (1) Clinical Symptom Score: The mice were weighed daily and their blood and stool were observed during the experiment for DAI scoring, which was graded and recorded according to the following table (Table 1).\n(§3) (2) After the experiment, the colon was removed, its length measured and weight recorded. The colon-to-body weight index (colon weight/body weight × 100%) and colon swelling rate (colon weight/length × 100%) were calculated.\n(§4) Colonic tissue approximately 1 cm from the anal margin (0.5 cm) and ileocecal region tissue were collected for histopathological examination. After H&E staining, the tissues were scored under single-blind conditions to evaluate the level of distal colon inflammation and tissue damage; scoring was performed according to the Ameho criteria and calculated as follows: • Score 0: No abnormal findings in the texture. • Score 1: Mild inflammatory infiltration of the mucosa and/or submucosa (mixed with neutrophils), submucosal edema, punctate mucosal erosion, accompanied by capillary proliferation. The muscularis mucosae is intact. • Score 2: Changes of Score 1 account for more than 50%. • Score 3: Obvious inflammatory infiltration and edema (neutrophils are often predominant); ulcers usually penetrate the muscularis mucosae to reach the submucosa. There is little inflammatory cell infiltration in the muscularis propria and no muscle necrosis. • Score 4: Changes of Score 3 account for more than 50%. • Score 5: Large confluent ulcers with coagulative necrosis, massive neutrophil infiltration at the margins and few monocytes. Necrotic tissue penetrates the muscularis propria. • Score 6: Changes of Score 5 account for more than 50% of the specimen.\nThe fence function of Occludin separates the apical and basolateral sides of the epithelial cell plasma membrane, restricting the free flow of lipids on the cell membrane, facilitating the formation of cell polarity, maintaining the impermeability and rigidity of the intestinal mucosa, and preventing the entry of pathogenic microorganisms. The barrier function of Occludin can regulate the transport of small molecules and maintain tissue homeostasis. The expression and distribution of related proteins are detected by immunohistochemistry.\nDuring modeling, the body weight of mice in the control group increased steadily. In the model group, during the first modeling period, mice were given 3% DSS drinking water ad libitum for 7 days, followed by tap water ad libitum for 7 days. On Day 4 of modeling, the body weight of mice began to decrease generally, reaching the lowest point on Day 8, and then started to rise. During the second modeling period, mice were given 2% DSS drinking water ad libitum for 7 days, followed by tap water ad libitum for 7 days. […]"}, "[2]": {"system": "BALB/c mice", "assay": "DSS-induced acute ulcerative colitis in mice (Example 6)", "format": "in vivo", "settings": "for survival rate: 8 mice, model group 75%", "procedure": "From Day 0 to Day 14 of the experiment, the mice were weighed daily and their blood and stool conditions were observed, scored and recorded according to the following table (Table 1). Random grouping was performed on Day 1, and modeling was conducted from Day 1 to Day 7. All groups except the Control group were given 3.5% DSS water daily. Re-grouping was performed on Day 8. The Control group and Model group received no medication and were given tap water; the other groups were administered intragastrically with 1 mg/kg, 3 mg/kg, 9 mg/kg, and SASP (Sulfasalazine or Salicylazosulfapyridine) 500 mg/kg, respectively. On Day 15, blood and colon samples were collected, colon length was measured, and a 1-2 cm segment of the colon was fixed with formaldehyde.\nas §1, §2, §3, §4\nThe fence function of Occludin separates the apical and basolateral sides of the epithelial cell plasma membrane, restricting the free flow of lipids on the cell membrane, facilitating the formation of cell polarity, maintaining the impermeability and rigidity of the intestinal mucosa, and preventing the entry of pathogenic microorganisms. The barrier function of Occludin can regulate the transport of small molecules and maintain tissue homeostasis. […]"}, "[3]": {"target": "T1, S1PR4 (Homo sapiens, UniProt O95977)", "T1 construct": "expressed in transfected cells; host or cells: 293T", "T1 sequence (O95977 1-384)": "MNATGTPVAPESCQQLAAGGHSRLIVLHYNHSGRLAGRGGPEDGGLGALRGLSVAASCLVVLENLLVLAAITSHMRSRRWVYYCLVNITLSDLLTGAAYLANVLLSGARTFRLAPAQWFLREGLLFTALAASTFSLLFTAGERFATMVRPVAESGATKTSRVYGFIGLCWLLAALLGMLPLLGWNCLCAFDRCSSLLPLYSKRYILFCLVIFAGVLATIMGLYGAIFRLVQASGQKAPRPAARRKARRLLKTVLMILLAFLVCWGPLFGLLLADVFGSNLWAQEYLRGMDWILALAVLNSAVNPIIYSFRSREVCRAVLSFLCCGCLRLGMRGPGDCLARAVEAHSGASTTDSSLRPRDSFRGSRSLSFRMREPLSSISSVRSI", "assay": "S1PR4 internalization and recovery test in S1PR4-293T cells", "format": "cell-based", "settings": "1 µM, 37 °C, 1.5 hours; detected immediately, 5 hours or 20 hours after treatment", "procedure": "Therefore, the recovery degree of S1PR4 after internalization caused by Compound 30 was evaluated, and the recovery effect following receptor internalization caused by Compound 30 was assessed in cells with high S1PR4 expression."}},
  "data": [
    {"smiles": "CCc1cc(/C(C)=N/OCc2ccc(-c3ccccc3)c(C)c2)ccc1CN1CC[C@H](C(=O)O)C1", "note": "[Compound 30]", "values": [
      {"measurement": "body weight during administration", "setting": "[1]; 30 1 mg/kg", "value": "remained relatively stable during administration"},
      {"measurement": "body weight during administration", "setting": "[1]; 30 3 mg/kg", "value": "remained relatively stable during administration"},
      {"measurement": "body weight change rate", "setting": "[1]; 30 3 mg/kg, before and after administration, vs model group", "value": "significantly increased"},
      {"measurement": "total DAI scores of the administration for 14 days", "setting": "[1]; 30 3 mg/kg, vs model group", "value": "significantly lower"},
      {"measurement": "colon pathological changes (H&E staining)", "setting": "[1]; 30 at 1 mg/kg", "value": "no obvious inflammatory cell infiltration was observed"},
      {"measurement": "colon pathological changes (H&E staining)", "setting": "[1]; 30 at 3 mg/kg", "value": "no obvious inflammatory cell infiltration was observed"},
      {"measurement": "daily DAI score", "setting": "[1]; 30 treatment group, SASP 500 mg/kg, vs model group", "value": "decreased more rapidly"},
      {"measurement": "body weight recovery", "setting": "[1]; 30 treatment groups (1, 3, 9 mg/kg), SASP 500 mg/kg, vs model group", "value": "recovered rapidly and increased substantially"},
      {"measurement": "colon length", "setting": "[1]; Compound 30 3 mg/kg, vs Model group", "value": "significantly inhibited DSS-induced colon shortening"},
      {"measurement": "colon length", "setting": "[1]; Compound 30 9 mg/kg, vs Model group", "value": "significantly inhibited DSS-induced colon shortening"},
      {"measurement": "Occludin expression in colonic mucosa (immunohistochemistry)", "setting": "[1]; vs Model group", "value": "the expression of Occludin was increased"},
      {"measurement": "survival rate", "setting": "[2]; 30 1 mg/kg intragastric from Day 8", "value": 87.5, "unit": "%"},
      {"measurement": "colon length", "setting": "[2]; 30 1 mg/kg, p<0.05 vs Model group", "value": "significantly inhibited DSS-induced colon shortening"},
      {"measurement": "survival rate", "setting": "[2]; 30 3 mg/kg intragastric from Day 8", "value": 87.5, "unit": "%"},
      {"measurement": "colon length", "setting": "[2]; 30 3 mg/kg, p<0.01 vs Model group", "value": "significantly inhibited DSS-induced colon shortening"},
      {"measurement": "total DAI scores over 14 days", "setting": "[2]; 30 3 mg/kg, vs model group", "value": "significantly lower"},
      {"measurement": "survival rate", "setting": "[2]; 30 9 mg/kg intragastric from Day 8", "value": 75, "unit": "%"},
      {"measurement": "body weight recovery", "setting": "[2]; 30 at 3 mg/kg, SASP at 500 mg/kg, vs model group", "value": "faster body weight recovery with a greater rebound amplitude"},
      {"measurement": "colon pathological changes (H&E staining)", "setting": "[2]; 30 at 9 mg/kg", "value": "obvious inflammatory cell infiltration and reduced goblet cells"},
      {"measurement": "daily DAI score", "setting": "[2]; 30 treatment groups, SASP 500 mg/kg, vs model group", "value": "decreased more rapidly"},
      {"measurement": "colon pathological changes (H&E staining)", "setting": "[2]; Compound 30 1 mg/kg", "value": "no obvious inflammatory cell infiltration was observed"},
      {"measurement": "colon pathological changes (H&E staining)", "setting": "[2]; Compound 30 3 mg/kg", "value": "no obvious inflammatory cell infiltration was observed"},
      {"measurement": "Occludin expression in colonic mucosa (immunohistochemistry)", "setting": "[2]; vs Model group", "value": "the expression of Occludin was increased"},
      {"measurement": "Occludin protein in colon (Western blotting)", "setting": "[2]; vs Model group", "value": "increase the expression of Occludin"},
      {"measurement": "S1PR4 internalization (expression of S1PR4 receptor on the cell surface)", "setting": "[3]", "value": "sustained internalization of S1PR4 for up to 20 hours"}
    ]}
  ]
}
